# Literature values as cited in patent US20080260864A1, “Topical Compositions for the Treatment of Depilation-Induced Irritation or Prevention Thereof” (MEDIDERMIS LTD., priority 2005, published 2008).
# System: skin / tissue
# [1] = Hawley's Condensed Chemical Dictionary
SMILES,skin irritation (The Merck Index),effect of repeated applications (UpToDate drug information),irritancy to tissue [1],toxicity by ingestion [1]
S1SSSSSSS1 [Sulfur],may cause skin irritation,may cause contact dermatitis,–,–
"[Al+3].[Cl-].[Cl-].[Cl-] [Anhydrous aluminium chloride, Aluminium chloride anhydrous]",–,–,powerful irritant,moderately toxic
